# Source: PubChem BioAssay (NCI)
#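 Compound exposure: 48 hours, 5 concentrations, 96-well plates. Abbreviation: GI50, concentration required for 50% inhibition of growth. TGI marks complete inhibition of growth.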
# Tests used:
# Assay in all cases: DTP human tumour cell line panel, 48 h
# ACHN renal = test system: ACHN renal
# OVCAR-4 ovarian = test system: OVCAR-4 ovarian
# SN12C renal = test system: SN12C renal
# SK-OV-3 ovarian = test system: SK-OV-3 ovarian
# NCI-H522 lung = test system: NCI-H522 lung
# PC-3 prostate = test system: PC-3 prostate
# MDA-MB-435 = test system: MDA-MB-435
# SW-620 colon = test system: SW-620 colon
# HCT-116 colon = test system: HCT-116 colon
# LOX IMVI melanoma = test system: LOX IMVI melanoma
# SK-MEL-28 melanoma = test system: SK-MEL-28 melanoma
# M14 melanoma = test system: M14 melanoma
# MDA-MB-231 breast = test system: MDA-MB-231 breast
# A549 NSCLC = test system: A549 NSCLC
# HT29 colon = test system: HT29 colon
# CAKI-1 renal = test system: CAKI-1 renal
# MOLT-4 leukemia = test system: MOLT-4 leukemia
# UO-31 renal = test system: UO-31 renal
# SK-MEL-5 melanoma = test system: SK-MEL-5 melanoma
# RXF 393 renal = test system: RXF 393 renal
# NCI/ADR-RES ovarian = test system: NCI/ADR-RES ovarian
# K-562 leukemia = test system: K-562 leukemia
# OVCAR-8 ovarian = test system: OVCAR-8 ovarian
# SNB-19 CNS = test system: SNB-19 CNS
# U251 CNS = test system: U251 CNS
# CCRF-CEM leukemia = test system: CCRF-CEM leukemia
# MCF7 breast = test system: MCF7 breast
# SF-539 CNS = test system: SF-539 CNS
# BT-549 breast = test system: BT-549 breast
# HCT-15 colon = test system: HCT-15 colon
# SR leukemia = test system: SR leukemia
# HOP-62 NSCLC = test system: HOP-62 NSCLC
# NCI-H460 lung = test system: NCI-H460 lung
# OVCAR-5 ovarian = test system: OVCAR-5 ovarian
# UACC-62 melanoma = test system: UACC-62 melanoma
# SNB-75 CNS = test system: SNB-75 CNS
# SF-268 CNS = test system: SF-268 CNS
# RPMI-8226 leukemia = test system: RPMI-8226 leukemia
# COLO 205 colon = test system: COLO 205 colon
# HL-60(TB) leukemia = test system: HL-60(TB) leukemia
# UACC-257 melanoma = test system: UACC-257 melanoma
# 786-0 renal = test system: 786-0 renal
# MALME-3M melanoma = test system: MALME-3M melanoma
# HS 578T breast = test system: HS 578T breast
# DU-145 prostate = test system: DU-145 prostate
structure (smiles),measurement,setting,value
O=C1c2c(c3c4cc(Br)ccc4[nH]c3c3ccc4ccccc4c23)C(=O)N1CCN1CCCCC1,GI50,ACHN renal,783 nM
same,TGI,ACHN renal,2030 nM
same,GI50,OVCAR-4 ovarian,1800 nM
same,TGI,OVCAR-4 ovarian,3680 nM
same,GI50,SN12C renal,1440 nM
same,TGI,SN12C renal,3160 nM
same,GI50,SK-OV-3 ovarian,2660 nM
same,TGI,SK-OV-3 ovarian,> 100000 nM
same,GI50,NCI-H522 lung,1230 nM
same,TGI,NCI-H522 lung,2690 nM
same,GI50,PC-3 prostate,1470 nM
same,TGI,PC-3 prostate,2930 nM
same,GI50,MDA-MB-435,1610 nM
same,TGI,MDA-MB-435,3110 nM
same,GI50,SW-620 colon,1040 nM
same,TGI,SW-620 colon,2390 nM
same,GI50,HCT-116 colon,1200 nM
same,TGI,HCT-116 colon,2520 nM
same,GI50,LOX IMVI melanoma,1180 nM
same,TGI,LOX IMVI melanoma,2660 nM
same,GI50,SK-MEL-28 melanoma,1770 nM
same,TGI,SK-MEL-28 melanoma,3290 nM
same,GI50,M14 melanoma,1360 nM
same,TGI,M14 melanoma,2810 nM
same,GI50,MDA-MB-231 breast,1570 nM
same,TGI,MDA-MB-231 breast,3220 nM
same,GI50,A549 NSCLC,1380 nM
same,TGI,A549 NSCLC,2740 nM
same,GI50,HT29 colon,1230 nM
same,TGI,HT29 colon,2560 nM
same,GI50,CAKI-1 renal,1290 nM
same,TGI,CAKI-1 renal,2790 nM
same,GI50,MOLT-4 leukemia,314 nM
same,TGI,MOLT-4 leukemia,2530 nM
same,GI50,UO-31 renal,1500 nM
same,TGI,UO-31 renal,3000 nM
same,GI50,SK-MEL-5 melanoma,1770 nM
same,TGI,SK-MEL-5 melanoma,3270 nM
same,GI50,RXF 393 renal,1480 nM
same,TGI,RXF 393 renal,2930 nM
same,GI50,NCI/ADR-RES ovarian,1280 nM
same,TGI,NCI/ADR-RES ovarian,3340 nM
same,GI50,K-562 leukemia,912 nM
same,TGI,K-562 leukemia,3300 nM
same,GI50,OVCAR-8 ovarian,1210 nM
same,TGI,OVCAR-8 ovarian,2590 nM
same,GI50,SNB-19 CNS,1720 nM
same,TGI,SNB-19 CNS,> 100000 nM
same,GI50,U251 CNS,884 nM
same,TGI,U251 CNS,2130 nM
same,GI50,CCRF-CEM leukemia,331 nM
same,TGI,CCRF-CEM leukemia,2180 nM
same,GI50,MCF7 breast,178 nM
same,TGI,MCF7 breast,1770 nM
same,GI50,SF-539 CNS,1570 nM
same,TGI,SF-539 CNS,3080 nM
same,GI50,BT-549 breast,9500 nM
same,TGI,BT-549 breast,> 100000 nM
same,GI50,HCT-15 colon,1540 nM
same,TGI,HCT-15 colon,3520 nM
same,GI50,SR leukemia,100 nM
same,TGI,SR leukemia,1840 nM
same,GI50,HOP-62 NSCLC,689 nM
same,TGI,HOP-62 NSCLC,2030 nM
same,GI50,NCI-H460 lung,390 nM
same,TGI,NCI-H460 lung,1520 nM
same,GI50,OVCAR-5 ovarian,1850 nM
same,TGI,OVCAR-5 ovarian,3390 nM
same,GI50,UACC-62 melanoma,1970 nM
same,TGI,UACC-62 melanoma,7300 nM
same,GI50,SNB-75 CNS,1520 nM
same,TGI,SNB-75 CNS,3440 nM
same,GI50,SF-268 CNS,1440 nM
same,TGI,SF-268 CNS,4080 nM
same,GI50,RPMI-8226 leukemia,1630 nM
same,TGI,RPMI-8226 leukemia,3940 nM
same,GI50,COLO 205 colon,1430 nM
same,TGI,COLO 205 colon,3150 nM
same,GI50,HL-60(TB) leukemia,1440 nM
same,TGI,HL-60(TB) leukemia,6100 nM
same,GI50,UACC-257 melanoma,1690 nM
same,TGI,UACC-257 melanoma,3200 nM
same,GI50,786-0 renal,1680 nM
same,TGI,786-0 renal,3100 nM
same,GI50,MALME-3M melanoma,1620 nM
same,TGI,MALME-3M melanoma,3110 nM
same,GI50,HS 578T breast,2040 nM
same,TGI,HS 578T breast,4890 nM
same,GI50,DU-145 prostate,1100 nM
same,TGI,DU-145 prostate,2480 nM
